Measured values from patent US6723751B1, “Crystalline forms of the sodium salt of 5-chloro-2-methoxy-N-(2-(4-methoxy-3-methylaminothiocarbonylaminosulfonylpenyl)ethyl)benzamide” (Aventis Pharma Deutschland GmbH, priority 1999, dated 2004).
Each block holds one compound with its values, some of them ahead of it.

Legend:
[1] = Hygroscopicity investigations: water vapor sorption (DVS-1 Dynamic Vapour Sorption Analyser); assay type: physicochemical; settings: 25° C., equilibrium
Experimental: The water vapor sorption of the crystal modifications according to the invention was investigated at a temperature of 25° C. on substance samples of about 12 to 16 mg using a DVS-1 Dynamic Vapour Sorption Analyser from Surface Measurement Systems. The measurements were carried out in a nitrogen atmosphere whose relative humidity was altered stepwise. The weight of the sample was recorded at each relative humidity after establishment of the equilibrium, which is when a change in weight of the sample no longer took place. For a series of increasing relative humidities, the water contents of the substance samples, which were determined from the change in weight compared with the starting weights, are indicated in percent.

[2] = Solubility investigations in water; assay type: physicochemical; settings: for Total amount of substance that could be dissolved: in 2 ml of water at 20° C. to 25° C.; for Time to go into solution: portions of 50 to 100 mg stirred into 2.0 ml of water at room temperature
Experimental: The substance was introduced with stirring into 2.0 ml of water at room temperature in portions of 50 to 100 mg. It went into solution in the course of a few minutes with initial clumping. In this way, a total of up to 500 mg of substance could be dissolved in 2 ml of water at 20° C to 25° C.
100 mg of the substance were introduced into 2.0 ml of water, a readily stirrable suspension being formed. […] On warming the suspension to 35° C. to 37° C., the substance went into solution within 20 minutes.
The substance was introduced with stirring into 2.0 ml of water at room temperature in portions of 50 to 100 mg. After introduction, the substance was initially present as a granular, readily stirrable solid that then went into solution in the course of a few minutes. In this way, a total of up to 360 mg of substance could be dissolved in 2 ml of water at 20° C. to 25° C.
The substance was introduced with stirring into 2.0 ml of water at room temperature in portions of 50 to 100 mg. It went into solution in the course of a few minutes with initial clumping. In this way, a total of up to 620 mg of substance could be dissolved in 2 ml of water at 20° C. to 25° C.

Water content ([1]; relative humidity 18.4 %): 0.30%
Water content ([1]; relative humidity 39.6 %): 0.65%
Water content ([1]; relative humidity 61.0 %): 1.39%
Water content ([1]; relative humidity 81.1 %): 2.04%
Water content ([1]; relative humidity 91.0 %): 5.72%
Total amount of substance that could be dissolved [2]: up to 500 mg
Time to go into solution [2]: a few minutes
SMILES: CNC(=S)[N-]S(=O)(=O)c1cc(CCNC(=O)c2cc(Cl)ccc2OC)ccc1OC.[Na+] [Crystal Modification 1, sodium salt of 5-chloro-2-methoxy-N-(2-(4-methoxy-3-methylaminothiocarbonylaminosulfonylphenyl)ethyl)benzamide]

Water content ([1]; relative humidity 18.5 %): 0.04%
Water content ([1]; relative humidity 39.9 %): 0.06%
Water content ([1]; relative humidity 61.5 %): 0.08%
Water content ([1]; relative humidity 81.9 %): 0.10%
Water content ([1]; relative humidity 91.7 %): 0.13%
State of solution on cooling ([2]; 100 mg in 2.0 ml of water, cooled from 35° C. to 37° C. to 20° C. to 25° C.): remained clearly dissolved
Time to go into solution on warming ([2]; 100 mg in 2.0 ml of water, suspension warmed to 35° C. to 37° C.): ≤ 20 min
Dissolution of 100 mg in 2.0 ml of water ([2]; after stirring at 20° C. to 25° C. for 2 h): a clear solution was still not formed
SMILES: CNC(=S)[N-]S(=O)(=O)c1cc(CCNC(=O)c2cc(Cl)ccc2OC)ccc1OC.[Na+] [Crystal Modification 2, sodium salt of 5-chloro-2-methoxy-N-(2-(4-methoxy-3-methylaminothiocarbonylaminosulfonylphenyl)ethyl)benzamide]

Water content ([1]; relative humidity 18.7 %): 0.06%
Water content ([1]; relative humidity 40.1 %): 0.21%
Water content ([1]; relative humidity 61.4 %): 0.38%
Water content ([1]; relative humidity 81.3 %): 0.65%
Water content ([1]; relative humidity 91.0 %): 0.79%
Total amount of substance that could be dissolved [2]: up to 360 mg
Time to go into solution [2]: a few minutes
SMILES: CNC(=S)[N-]S(=O)(=O)c1cc(CCNC(=O)c2cc(Cl)ccc2OC)ccc1OC.[Na+] [Crystal Modification 3, sodium salt of 5-chloro-2-methoxy-N-(2-(4-methoxy-3-methylaminothiocarbonylaminosulfonylphenyl)ethyl)benzamide]

Total amount of substance that could be dissolved [2]: up to 620 mg
Time to go into solution [2]: a few minutes
SMILES: CNC(=S)[N-]S(=O)(=O)c1cc(CCNC(=O)c2cc(Cl)ccc2OC)ccc1OC.[Na+] [Crystal Modification 4, sodium salt of 5-chloro-2-methoxy-N-(2-(4-methoxy-3-methylaminothiocarbonylaminosulfonylphenyl)ethyl)benzamide]
